# Test results taken from the supplement of paper PMC6045584.
# ± gives the standard deviation of the averaged measurements.
# Compound: O=C(O)C1(C(=O)O)CCC1.[NH2-].[NH2-].[Pt+2] [CARBOPLATIN]
# Assay: surviving fraction relative to DMSO-only wells; higher = less growth inhibition
# Conditions: 0.5 nM; exposure time: 5 days
# Outline: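 Tumour cell lines in log phase were plated in 384-well plates at 250–500 cells per well, then, after 24 hours, exposed continuously for five days to inhibitors at 0.5, 1, 5, 10, 50, 100, 500 and 1000 nM. Viability came from CellTiter-Glo luminescence, and surviving fraction is that signal normalised to the median of DMSO-only wells. Plates were read after 10 minutes at room temperature, and each line, screened three times, was kept only when replicate Pearson r was >0.7 and median Z' was >0.3.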
row,Test System,surviving fraction
1,JURKAT HAEMATOPOIETIC AND LYMPHOID TISSUE,1 ± 0.021
2,SJSA1 BONE,1.68 ± 0.11
3,YAMATO SYNOVIAL,1.17 ± 0.066
4,C33A CERVIX,1.14 ± 0.063
5,PCI30 HEADNECK,1.07 ± 0.036
6,SCC003 HEADNECK,1.1 ± 0.075
7,HUO3N1 BONE,1.08 ± 0.016
8,T47D BREAST,1.02 ± 0.049
9,NOS1 BONE,1.22 ± 0.2
10,HELA CERVIX,1.07 ± 0.02
11,NY BONE,1.03 ± 0.02
12,CASKI CERVIX,0.946 ± 0.064
13,BT549 BREAST,1.08 ± 0.038
14,COLO320DM LARGE INTESTINE,1.12 ± 0.013
15,MDAMB361 BREAST,0.791 ± 0.041
16,HOSMNG BONE,1.06 ± 0.025
17,A549 LUNG,1.07 ± 0.023
18,CAL51 BREAST,0.974 ± 0.023
19,OSHN BONE,1.091 ± 0.0051
20,MCF7 BREAST,0.942 ± 0.053
21,HT1080 SOFT TISSUE,1.07 ± 0.024

row,Test System,surviving fraction
1,MDAMB157 BREAST,1.04 ± 0.1
2,143B BONE,1.11 ± 0.099
3,SIHA CERVIX,1.14 ± 0.065
4,MDAMB134 BREAST,0.906 ± 0.03
5,SG32 HEADNECK,1.12 ± 0.12
6,NCIH441 LUNG,1.08 ± 0.027
7,CCK81 LARGE INTESTINE,0.883 ± 0.042
8,SG31 HEADNECK,1.15 ± 0.14
9,OS25HAL BONE,1.09 ± 0.045
10,HCC1954 BREAST,1.36 ± 0.11
11,VP229 BREAST,1.12 ± 0.14
12,22RV1 PROSTATE,1.1 ± 0.072
13,MDAMB231 BREAST,0.997 ± 0.048
14,RDES SOFT TISSUE,1.23 ± 0.035
15,LM7 BONE,1.06 ± 0.017
16,HMT3552 BREAST,1.03 ± 0.063
17,SNU475 LIVER,1.04 ± 0.088
18,HCC38 BREAST,1.07 ± 0.18
19,HU09 BONE,0.977 ± 0.027
20,ASKA SYNOVIAL,1.03 ± 0.06

# Same assay, conditions: 1 nM; exposure time: 5 days
row,Test System,surviving fraction
1,JURKAT HAEMATOPOIETIC AND LYMPHOID TISSUE,1.05 ± 0.043
2,SJSA1 BONE,1.73 ± 0.089
3,YAMATO SYNOVIAL,1.33 ± 0.069
4,C33A CERVIX,1.14 ± 0.085
5,PCI30 HEADNECK,1.09 ± 0.04
6,SCC003 HEADNECK,1.06 ± 0.04
7,HUO3N1 BONE,1.06 ± 0.061
8,T47D BREAST,1.04 ± 0.04
9,NOS1 BONE,1.08 ± 0.076
10,HELA CERVIX,1.03 ± 0.042
11,NY BONE,0.9813 ± 0.0058
12,CASKI CERVIX,0.877 ± 0.018
13,BT549 BREAST,1.19 ± 0.04
14,COLO320DM LARGE INTESTINE,1.14 ± 0.021
15,MDAMB361 BREAST,0.821 ± 0.11
16,HOSMNG BONE,1.02 ± 0.059
17,A549 LUNG,1.08 ± 0.013
18,CAL51 BREAST,0.924 ± 0.08
19,OSHN BONE,1.06 ± 0.022
20,MCF7 BREAST,0.867 ± 0.048
21,HT1080 SOFT TISSUE,1.1 ± 0.011

row,Test System,surviving fraction
1,MDAMB157 BREAST,0.881 ± 0.024
2,143B BONE,1.11 ± 0.083
3,SIHA CERVIX,1.18 ± 0.038
4,MDAMB134 BREAST,0.837 ± 0.13
5,SG32 HEADNECK,1.07 ± 0.17
6,NCIH441 LUNG,1.12 ± 0.063
7,CCK81 LARGE INTESTINE,0.866 ± 0.092
8,SG31 HEADNECK,1.21 ± 0.11
9,OS25HAL BONE,1.03 ± 0.019
10,HCC1954 BREAST,1.02 ± 0.072
11,VP229 BREAST,1.05 ± 0.022
12,22RV1 PROSTATE,0.999 ± 0.057
13,MDAMB231 BREAST,0.988 ± 0.019
14,RDES SOFT TISSUE,0.987 ± 0.091
15,LM7 BONE,1.07 ± 0.051
16,HMT3552 BREAST,0.996 ± 0.11
17,SNU475 LIVER,1.06 ± 0.038
18,HCC38 BREAST,0.841 ± 0.19
19,HU09 BONE,0.955 ± 0.056
20,ASKA SYNOVIAL,1.05 ± 0.022

# Same assay, conditions: 5 nM; exposure time: 5 days
row,Test System,surviving fraction
1,JURKAT HAEMATOPOIETIC AND LYMPHOID TISSUE,1 ± 0.025
2,SJSA1 BONE,1.56 ± 0.12
3,YAMATO SYNOVIAL,1.34 ± 0.11
4,C33A CERVIX,1.19 ± 0.082
5,PCI30 HEADNECK,1.03 ± 0.021
6,SCC003 HEADNECK,1.1 ± 0.039
7,HUO3N1 BONE,1.13 ± 0.065
8,T47D BREAST,1.04 ± 0.083
9,NOS1 BONE,1.31 ± 0.13
10,HELA CERVIX,1.03 ± 0.034
11,NY BONE,1.08 ± 0.019
12,CASKI CERVIX,0.954 ± 0.043
13,BT549 BREAST,1.06 ± 0.081
14,COLO320DM LARGE INTESTINE,1.1 ± 0.045
15,MDAMB361 BREAST,0.808 ± 0.043
16,HOSMNG BONE,1.03 ± 0.075
17,A549 LUNG,1.08 ± 0.02
18,CAL51 BREAST,0.98 ± 0.018
19,OSHN BONE,1.09 ± 0.035
20,MCF7 BREAST,0.995 ± 0.049
21,HT1080 SOFT TISSUE,1.09 ± 0.051

row,Test System,surviving fraction
1,MDAMB157 BREAST,1.02 ± 0.11
2,143B BONE,1.13 ± 0.06
3,SIHA CERVIX,1.13 ± 0.088
4,MDAMB134 BREAST,0.856 ± 0.18
5,SG32 HEADNECK,1.15 ± 0.17
6,NCIH441 LUNG,1.08 ± 0.049
7,CCK81 LARGE INTESTINE,0.835 ± 0.083
8,SG31 HEADNECK,0.963 ± 0.12
9,OS25HAL BONE,0.994 ± 0.034
10,HCC1954 BREAST,1.4 ± 0.31
11,VP229 BREAST,1.11 ± 0.12
12,22RV1 PROSTATE,1.03 ± 0.051
13,MDAMB231 BREAST,0.994 ± 0.036
14,RDES SOFT TISSUE,1.14 ± 0.1
15,LM7 BONE,1.09 ± 0.076
16,HMT3552 BREAST,1.02 ± 0.032
17,SNU475 LIVER,1.07 ± 0.041
18,HCC38 BREAST,1.34 ± 0.44
19,HU09 BONE,1.17 ± 0.069
20,ASKA SYNOVIAL,1.16 ± 0.088

# Same assay, conditions: 10 nM; exposure time: 5 days
row,Test System,surviving fraction
1,JURKAT HAEMATOPOIETIC AND LYMPHOID TISSUE,1.03 ± 0.012
2,SJSA1 BONE,1.64 ± 0.17
3,YAMATO SYNOVIAL,1.31 ± 0.051
4,C33A CERVIX,1.43 ± 0.17
5,PCI30 HEADNECK,1.11 ± 0.093
6,SCC003 HEADNECK,1.04 ± 0.025
7,HUO3N1 BONE,1.12 ± 0.046
8,T47D BREAST,1.01 ± 0.019
9,NOS1 BONE,1.25 ± 0.1
10,HELA CERVIX,1.01 ± 0.02
11,NY BONE,1.03 ± 0.024
12,CASKI CERVIX,0.93 ± 0.069
13,BT549 BREAST,1.05 ± 0.03
14,COLO320DM LARGE INTESTINE,1.06 ± 0.059
15,MDAMB361 BREAST,0.762 ± 0.029
16,HOSMNG BONE,1.05 ± 0.036
17,A549 LUNG,1.03 ± 0.019
18,CAL51 BREAST,0.996 ± 0.017
19,OSHN BONE,1.05 ± 0.044
20,MCF7 BREAST,0.898 ± 0.042
21,HT1080 SOFT TISSUE,1.09 ± 0.013

row,Test System,surviving fraction
1,MDAMB157 BREAST,1.04 ± 0.066
2,143B BONE,1.14 ± 0.097
3,SIHA CERVIX,1.21 ± 0.094
4,MDAMB134 BREAST,0.837 ± 0.033
5,SG32 HEADNECK,1.17 ± 0.051
6,NCIH441 LUNG,1.13 ± 0.093
7,CCK81 LARGE INTESTINE,0.831 ± 0.093
8,SG31 HEADNECK,1.12 ± 0.24
9,OS25HAL BONE,1.03 ± 0.019
10,HCC1954 BREAST,1.52 ± 0.31
11,VP229 BREAST,0.961 ± 0.088
12,22RV1 PROSTATE,1.02 ± 0.036
13,MDAMB231 BREAST,1 ± 0.027
14,RDES SOFT TISSUE,1.11 ± 0.083
15,LM7 BONE,1.05 ± 0.028
16,HMT3552 BREAST,1.03 ± 0.065
17,SNU475 LIVER,1.05 ± 0.037
18,HCC38 BREAST,1.15 ± 0.15
19,HU09 BONE,1.09 ± 0.021
20,ASKA SYNOVIAL,1.17 ± 0.061
